O=C([O-])CCP(=O)([O-])c1ccccc1.[Na+].[Na+]
solubility (mole fraction)
Details | 293.15 K | 298.15 K | 303.15 K | 308.15 K | 313.15 K | 318.15 K | 323.15 K | 328.15 K | 333.15 K | 343.15 K
in acetic acid | 0.000543 | 0.000554 | 0.000569 | 0.000581 | 0.000603 | 0.000626 | 0.000644 | 0.000663 | 0.000703 | 0.000742
in acetone | 3.66e-05 | 3.89e-05 | 4.13e-05 | 4.39e-05 | 4.62e-05 | 4.83e-05 | 5.24e-05 | – | – | –
in ethanol | 7.03e-05 | 9.7e-05 | 0.000138 | 0.000197 | 0.000264 | 0.000352 | 0.000505 | 0.000728 | 0.000926 | 0.00164
in methanol | 2.2e-05 | 2.26e-05 | 2.28e-05 | 2.3e-05 | 2.34e-05 | 2.4e-05 | 2.44e-05 | – | – | –
in water | 0.000904 | 0.000906 | 0.000908 | 0.000909 | 0.000911 | 0.000912 | 0.000913 | 0.000915 | 0.000916 | 0.000918

O=C(O)CCP(=O)([O-])c1ccccc1.[Na+]
solubility (mole fraction)
Details | 293.15 K | 298.15 K | 303.15 K | 308.15 K | 313.15 K | 318.15 K | 323.15 K | 328.15 K | 333.15 K | 343.15 K
in acetic acid | 0.0169 | 0.0205 | 0.0225 | 0.0264 | 0.0283 | 0.0312 | 0.0357 | 0.0404 | 0.0471 | 0.062
in acetone | 7e-05 | 0.00011 | 0.00016 | 0.00024 | 0.00035 | 0.00051 | 0.00075 | – | – | –
in ethanol | 0.00065 | 0.00076 | 0.00095 | 0.00106 | 0.00122 | 0.00166 | 0.00199 | 0.00223 | 0.00273 | 0.00413
in ethyl acetate | 0.00039 | 0.00051 | 0.000685 | 0.00096 | 0.00117 | 0.00165 | 0.00204 | 0.00285 | 0.00384 | 0.00602
in methanol | 0.00612 | 0.00671 | 0.00719 | 0.00779 | 0.00831 | 0.009 | 0.00993 | – | – | –
in water | 0.0196 | 0.0201 | 0.0214 | 0.0222 | 0.0232 | 0.0248 | 0.0263 | 0.0277 | 0.0295 | 0.0316

Source: BigSolDB 2.1
